Measured values from patent US20250228757A1, “SUNSCREEN COMPOUNDS AND FORMULATIONS” (Oregon State University, priority 2024, published 2025).
Entries after “also recorded” stand apart in the source; their conditions may differ. Where two headings read alike, the source gives them in different places.

What was measured:
HaCaT cells [1] = assay: UV protection dose-response MTS assay; format: cell-based, human
Experimental: (§1) Immortalized keratinocyte HaCaT cells (ATCC, Manassas, VA, USA) were cultured in DMEM supplemented with 5% fetal bovine serum. Human primary epidermal keratinocytes (HPEKs) (ATCC) were cultured in EpiLife medium (ThermoFisher Scientific) supplemented with Human Keratinocyte Growth Supplement (ThermoFisher Scientific). HPEKs were maintained below ten passages. Cell lines were incubated in a humidified environment at 37° C. with 5% CO2.
For UV protection dose-response assays, HaCaT cells were seeded 5000 cells/well into clear 96-well plates (Corning). After 24 h, cells were treated with MBITC or MBA at 0, 3.125, 6.25, 12.5, 25, or 50 µM and incubated for 12 h. Cells were washed in PBS and irradiated with 10 mJ/cm^2 UVB using a UV Transilluminator 2000. After irradiation, fresh media was added, cells incubated for 36 h, and viability was determined by MTS assay as before. HPEKs were seeded 5000 cells/well into black, opaque bottom 96-well plates (Greiner Bio-One, Monroe, NC, USA) and incubated for 48 h. Afterward, cells were treated with vehicle control or a 10-point half-log serial dilution of MBITC or MBA starting at 50 μM and incubated for 12 h. Before irradiation, the conditioned cell culture medium was re-moved from each well, retained, and PBS containing the same dose of EtOH or the compounds was added to the wells. Cells were irradiated with a 10 mJ/cm^2 dose using UVB TL 20W/12 RS M3 lights (Philips, Amsterdam, Netherlands). The dose of UVB was quantified using an IL1400A NIST Traceable Photometer (International Light, Peabody, MA, USA). Following irradiation, the PBS was aspirated from the wells, and conditioned media was added. After 36 h, CYQUANT® (ThermoFisher Scientific) assays were performed per the manufacturer's instructions, and fluorescent signal read using a Synergy4® (Biotek, Winooski, VT) plate reader. Cell counts were extrapolated from a standard curve of fluorescent signal activity vs. HPEK cell counts. Time kinetics involved the same compound and UVB treatment scheme as before, but CYQUANT® assays were performed at 24, 48, 72, or 96 h post-UVB irradiation.

UVB absorption assay = format: physicochemical; conditions: for UVB absorption: time needed to reach a 5 mJ/cm^2 dose: in ethanol, 1, 10, 25, 50 μM
Experimental: MBITC or MBA was diluted in ethanol at 0, 1, 10, 25, and 50 μM, added to separate wells of a 24-well plate (Corning, Corning, NY, USA), and irradiated with UVB light using a UV Transilluminator 2000 (Bio-Rad, Hercules, CA, USA) to reach 5 mJ/cm^2 or 10 mJ/cm^2. A Daavlin X-96 irradiance meter (Daavlin, Bryan, OH, USA) measured energy transmittance through the dish. Each well was separately irradiated, and the time was measured to reach the specified energy density.

[2] = system: human primary epidermal keratinocytes (HPEKs); assay: UV protection CyQuant cell count assay (dose-response and time kinetics); format: cell-based; conditions: 10 mJ/cm^2 UVB
Experimental: as §1
For UV protection dose-response assays, HaCaT cells were seeded 5000 cells/well into clear 96-well plates (Corning). After 24 h, cells were treated with MBITC or MBA at 0, 3.125, 6.25, 12.5, 25, or 50 µM and incubated for 12 h. Cells were washed in PBS and irradiated with 10 mJ/cm^2 UVB using a UV Transilluminator 2000. After irradiation, fresh media was added, cells incubated for 36 h, and viability was determined by MTS assay as before. HPEKs were seeded 5000 cells/well into black, opaque bottom 96-well plates (Greiner Bio-One, Monroe, NC, USA) and incubated for 48 h. […] The dose of UVB was quantified using an IL1400A NIST Traceable Photometer (International Light, Peabody, MA, USA). […] After 36 h, CYQUANT® (ThermoFisher Scientific) assays were performed per the manufacturer's instructions, and fluorescent signal read using a Synergy4® (Biotek, Winooski, VT) plate reader. […]

[3] = system: cyclobutane pyrimidine dimers (CPDs) in HPEKs; assay: Immunocytochemistry for cyclobutane pyrimidine dimers after UVB; format: cell-based, human; conditions: 12 h treatment, 5 mJ/cm^2 UVB
Experimental: HPEKs were cultured to 80% confluence in 6-well plates containing gelatin-coated coverslips and treated with ethanol vehicle control or MBA. After 12 h, the conditioned cell culture medium was removed, retained, and PBS containing EtOH or MBA was added to each well. Plates were then irradiated with 5 mJ/cm^2 UVB, PBS removed, conditioned media re-added, and incubated for 24 h. Cells were then fixed in 75% methanol/25% acetic acid, washed with 70% EtOH, and DNA denatured in 70 mM NaOH (in 70% EtOH). Wells were then washed 3 times with PBS and denaturation quenched with 100 mM Tris —HCl (in 70% EtOH). Cells were then blocked with 10% normal goat serum (NGS) in PBS-T and incubated overnight at 4° C. with α-thymine dimer primary antibody (1:1000, Kamiya Bio-medical, Matsumoto, Nagano, Japan) in NGS blocking buffer. […] Corrected total cellular fluorescence (CTCF) was quantified using the ImageJ software package as described previously, except only nuclear CTCF for CPD staining was quantified and nuclei were selected for ROIs using manual thresholding for each field (Carpenter et al., J Invest Dermatol 2022, 142:1903-1911). For all quantifications, cells on the edges of each field were excluded.

UV spectra = format: physicochemical; conditions: UV spectrum
[4] = system: human primary epidermal keratinocytes (HPEKs); assay: Dose-response CellTiter-Glo viability assay without UVB; format: cell-based; conditions: 48 h, up to 50 μM, absence of UVB
Experimental: as §1
(§2) For viability studies, HaCaT cells were seeded 5000 cells/well in clear 96-well plates (Corning, Corning, NY, USA). After 24 h, cells were treated with MBITC or MBA at 0, 3.125, 6.25, 12.5, 25, or 50 μM and incubated with the compounds for 48 h. Viability was then determined by MTS assay using CellTiter 96® AQueous One Solution Cell Proliferation Assay (Promega Corporation, Madison, WI, USA). Absorption was measured using Cytation® 5.0 Imaging Reader (Agilent, Santa Clara, CA, USA). HPEKs were seeded 5000 cells/well into white, opaque bottom 96-well plates (Greiner Bio-One) and incubated for 48 h. HPEKs were then treated with ethanol vehicle control or a 5-point half-log serial dilution of MBA starting at 50 μM. After 48 h, CellTiter-Glo® (Promega Corporation, Madison, WI) viability assays were performed per the manufacturer's instructions, and luminescence was read using a Synergy4 (Biotek, Winooski, VT) plate reader.

Solubility = format: physicochemical
HaCaT cells [5] = assay: Dose-response MTS viability assay without UVB; format: cell-based, human; conditions: 48 h, 3.125-50 μM, absence of UVB irradiation
Experimental: as §1, §2

p-γH2A.X in HPEKs = assay: Immunoblotting for p-γH2A.X after UVB; format: cell-based, human; conditions: 5 mJ/cm^2 UVB; for p-γH2A.X reduction: 1 μM (lowest tested dose); for p-γH2A.X staining: 25 and 50 μM (higher concentrations)
Experimental: HPEKs were cultured to 80% confluence in 6-well plates and treated with ethanol vehicle control or MBA. Cells were then irradiated in the same manner as immunocytochemistry samples. After 36 h, cells were harvested by scraping into cold PBS, centrifuged, pellet resuspended in denaturing SDS lysis buffer, boiled, and sonicated as described previously (Carpenter et al., Mol Carcinog 2019, 58:1680-1690). Samples were normalized to protein content as determined by BCA Assay (ThermoFisher Scientific). SDS-PAGE was then performed using 10% gels and transferred to a 0.45 μm nitrocellulose membrane (GE Healthcare, Chicago, IL, USA). Blots were blocked for 1 h in 5% nonfat dry milk in TBS-T and incubated with α-p-γH2A.X antibody (1:1000, Cell Signaling Technology, Danvers, MA, USA) or Actin (1:2000, Bethyl Laboratories, Inc., Montgomery, TX, USA) in 5% bovine serum albumin in TBS-T overnight at 4° C. The next day, blots were incubated with HRP-conjugated Goat anti-rabbit IgG or Goat anti-mouse IgG secondary antibodies (1:2000, Calbiochem, San Diego, CA, USA) for 1 h. The immunoblots were developed using chemiluminescent reagents (GE Healthcare) and imaged with a MyECL imager (ThermoFisher Scientific).

HPEKs = conditions: previous study, absence of UVB; cited from earlier work
human skin equivalents = conditions: Carpenter et al. 2018; cited from earlier work
[6] = HaCaT, 12 h treatment, 10 mJ/cm^2 UVB, MTS after 36 h

| solubility in ethanol (Solubility) | Compound | cytotoxic effects in the presence of UVB light (HaCaT cells [1]; [6]) | UVB absorption: time needed to reach a 5 mJ/cm^2 dose (UVB absorption assay) | protective effect, time kinetics ([2]; incubation up to four days) | prevention of UV-induced loss in proliferation (dose-response) ([2]; 12 h treatment, CyQuant) | intensity of the CPD staining (CTCF) [3] | total number of CPD+ cells vs vehicle control [3] | λmax (UV spectra) | cytotoxicity (viability, CellTiter-Glo) [4] | cytotoxicity (viability, MTS) (HaCaT cells [5]) | p-γH2A.X reduction (p-γH2A.X in HPEKs) | p-γH2A.X staining (p-γH2A.X in HPEKs) | cytotoxic effects in the presence of UVB light (HaCaT cells [1]) | protection from UVB-induced loss in proliferation (HaCaT cells [1]; [6]) | cytotoxic effects in HPEKs (HPEKs) | UVB absorption capacity, compared (UVB absorption assay; time needed to reach 5 or 10 mJ/cm^2) | UVB-induced DNA damage, proliferation, and matrix-metalloproteinase expression (human skin equivalents) |
| --- | --- | --- | --- | --- | --- | --- | --- | --- | --- | --- | --- | --- | --- | --- | --- | --- | --- |
| ethanol soluble | CCCCCCCCCCCCCC/C=C\CCCC(=O)NCc1cccc(OC)c1 [MBA, (Z)—N-(3-methoxybenzyl)eicos-5-enamide] | did not exhibit the same cytotoxic effects as the parental compound | only showed similar activity at a single concentration of 25 μM | did not reveal a protective effect | had the same effect as in HaCaT cells | substantially decreased | small but significant difference | 273 nm | not cytotoxic at the tested doses | little to no effect | trend of reduced p-γH2A.X | lack of elevated p-γH2A.X |  |  |  |  |  |
|  | COc1cccc(CN=C=S)c1 [MBITC, 3-methoxybenzyl isothiocyanate] |  | sufficient to increase the time needed to reach a 5 mJ/cm^2 dose at every tested concentration except 50 μM, where the time significantly decreased |  |  |  |  | 273 nm |  |  | less reduction; also recorded: trend of reduced p-γH2A.X | trend of increased p-γH2A.X staining compared to MBA | displayed cytotoxic effects in the presence of UVB light | did not reverse the loss of proliferation | exhibited cytotoxic effects | more UVB absorption capacity than MBA | reduce |
|  | COc1cccc(CCC#N)c1 [MPACN, 3-methoxybenzyl acetonitrile] |  |  |  |  |  |  |  |  |  |  |  |  |  |  |  | reduce |
